Literature values in patent US8883841B2, “Oncogenic ras-specific cytotoxic compound and methods of use thereof” (The Board of Regents of the University of Texas System, priority 2005, dated 2014).

System: wild-type MEF
Conditions: Winter-Vann et al., 2005; cited from earlier work

CCCCCCCCn1cc(CC(N)=O)c2cc(-c3cccc(C)c3)ccc21 [Cysmethynil, 2-[5-(3-methylphenyl)-1-octyl-1H-indol-3-yl]acetamide]
growth inhibition in wild-type MEF: induce Icmt-dependent growth inhibition
